Patent US20250009834A1, “COMPOSITION OF BEVERAGE CONCENTRATE CONTAINING CITRIC ACID AND NATURAL ANTIOXIDANT” (priority 2021, published 2025)

Experiment: CaOx aggregation inhibition (aggregation coefficient of seed COM crystals)
Settings: 200 μL sample added to 2 mL seed COM suspension, 37° C., 10 min; embodiment 100% concentration; BSA 1 mg/mL; citric acid positive control
Protocol: In the following in-vitro trials, all “%” marks represented percentages by weight. An embodiment of “100%” concentration was prepared by mixing 60 mL of a beverage concentrate of an exemplary composition (see Table 1 above) with 440 mL of distilled water, equivalent to a ratio of 0.136 parts of the exemplary composition to one part of water. An embodiment of a concentration lower than 100% was prepared by further diluting said embodiment of 100% concentration with distilled water by a conventionally known dilution means that is appropriate for food and beverages. All the mixtures concerned were conventionally mixed to achieve effective uniformity for food and beverages.
Seed calcium oxalate monohydrate (COM) crystals were prepared and diluted to 50 mg/mL in 0.05 M Tris/0.15 NaCl, pH 6.5. An embodiment having the 100% concentration, or bovine serum albumin (BSA) or distilled water (blank) (200 μL) was added to the freshly prepared working seed COM suspension (2 mL). After mixing, absorbance at 620 nm was measured as baseline (AT0). After incubating at 37° C. for 10 min. absorbance was measured again (AT10). The aggregation coefficient (AC) was calculated from: AC=((AT0−AT10)/10)×1,000. Higher AC value indicates higher COM aggregation.

Compound | aggregation of seed COM crystals
bovine serum albumin [BSA] | did not
O=C(O)CC(O)(CC(=O)O)C(=O)O [Citric acid] | strongly inhibited
